Tested on: ulcers in 24 hr. fasted S.D. rats
Assay: Indomethacin-Induced Ulcer Assay (assay B)
Type: in vivo
Conditions: 15 min prior to indomethacin 10 mg/kg p.o., stomach mucosae examined 4 hours later
Experimental: B. Indomethacin-Induced Ulcer Assay
Indomethacin, 10 mg/kg p.o., is used to induce ulcers in 24 hr. fasted S.D. rats. Fifteen minutes prior to indomethacin administration, groups of rats each receive either an aqueous vehicle (5% wt. methylcellulose) or the test compound at various doses perorally. Four hours later the animals are sacrificed and stomach-mucosae are examined for resulting ulcers.
Following the procedure of assay B (Indomethacin-Induced Ulcer Assay), 4-bromo-2,7-dimethoxy-3H-phenothiazin-3-one was tested for ulcer inhibition. For Table 49-1, % Inhibition was calculated as: [formula]

COc1ccc2nc3cc(OC)c(=O)c(Br)c-3sc2c1 [4-Bromo-2,7-dimethoxy-3H-phenothiazin-3-one]
% Inhibition (Dose 0.003 mg/kg perorally): 38%
% Inhibition (Dose 0.01 mg/kg perorally): 56%
% Inhibition (Dose 0.03 mg/kg perorally): 69%
% Inhibition (Dose 0.1 mg/kg perorally): 66%
% Inhibition (Dose 0.3 mg/kg perorally): 70%
% Inhibition (Dose 3.0 mg/kg perorally): 87%

Reference: patent publication EP0155623A2, “Use of lipoxygenase inhibitors for the preparations of cytoprotective pharmaceutical compostions and process for the preparation of a cytoprotective pharmaceutical composition” (Merck & Co., Inc., priority 1984, dated 1985)
